Experimental data: patent US20220324958A1, “ANTI-INFLAMMATORY PEPTIDES, PHARMACEUTICAL COMPOSITION CONTAINING SUCH PEPTIDES, AND USES THEREOF” (INSTITUTO BUTANTAN, priority 2019, published 2022)
No end group written: not given here.

How the values were obtained:
[1] = test system: neurons obtained from SHSY5Y cells; assay: Anti-nociceptive/anti-inflammatory model, neurons stimulated with glycated collagen (GC): substance P and β-endorphin in supernatant; format: cell-based; conditions: peptide 200 nM incubated 3 hours after GC (100 μg/mL)
Experimental: ANOVA and Dunnet * p<0.05; ** p<0.01 compared to glycated collagen (GC);
ANOVA and Dunnet * p<0.05 ** p<0.01, *** p<0.001 compared with GC;
(§1) The differentiation process consists of 6 stages distributed over 7 days. On the first day of the differentiation protocol (day 0), cells were seeded in collagen-coated plates. On days 1, 3, and 4 the culture medium was removed, and the differentiation medium containing 2% fetal bovine serum (FBS) and retinoic acid (RA) 10 μM) was added. On day 5, the medium was removed and the culture was incubated with culture medium and brain-derived neurotrophic factor (BDNF) (50 ng/mL). On day 7 of the differentiation process, differentiated neurons are fully ready for use (Agholme et al., 2010, with some modifications).
(§2) 7×10^3 neurons/well were incubated with 10 μM of morphine (inhibitory response control) or peptides (200 nM and 500 nM) 3 hours before or 3 hours after incubation with IL-1β (10 ng/mL) or glycated collagen (GC) (100 μg/mL) (both positive controls for the release of substance P). After 24 hours of incubation, the cell viability assay and the detection of substance P and β-endorphin in the supernatant were performed. Multiplex with magnetic spheres (MILLIPLEX® MAP Magnetic Bead Panel)
ANOVA and Dunnet * p<0.05; ** p<0.01 compared to GC.
ANOVA and Dunnet * p<0.05 ** p<0.01, *** p<0.001 compared to GC.

[2] = test system: neurons obtained from SHSY5Y cells; assay: Anti-nociceptive/anti-inflammatory model, neurons stimulated with IL-1β: substance P and β-endorphin in supernatant; format: cell-based
Experimental: ANOVA and Dunnet ** p<0.01, *** p<0.001 compared to IL-1β;
as §1, §2
ANOVA and Dunnet ** p<0.01, *** p<0.001 compared to […]

[3] = test system: human chondrocytes (NHAC-kn); assay: Pro-inflammatory model of chondrocytes treated with IL-1β, cytokine release (Multiplex); format: cell-based; conditions: chondrocytes treated with IL-1β (1 ng/mL)
Experimental: Values were obtained from each analyte in pg/mL from treatment with the peptides in the presence of IL-1β (1 ng/mL). The data are presented as the mean±MSE (* p<0.05 when compared to the control with IL-1β, test t, n=3).
(B) Chondrocytes were pretreated for 1 hour with IL-1β (1 ng/mL) before the addition of peptides (200 nM, 500 nM, and 1.25 μM) and an additional incubation of 24 hours before collecting the supernatants.
The primary human chondrocytes used in this assay were purchased from Lonza: Normal Human Articular Primary chondrocytes (NHAC-Kn, #CC-2550, Lot 8F3336). Chondrocyte cell culture was performed in bottles (Sarstedt T175 and T75). The cells were cultivated in DMEM culture medium (Sigma) supplemented with 10% fetal bovine serum (FBS) (Sigma), incubated in an oven at 37° C. and 5% CO2, and cultures were used in the sixth passage. The culture medium was changed every two days until the culture reached 80% confluence.
The identification and quantitative analysis of the cytokines present in the peptide treatment supernatant were performed using the Luminex xMAP Milliplex MAP Human Cytokine/Chemokine Magnetic Bead Panel Catalog #HCYTOMAG-60K technology, according to the manufacturer's instructions.
Values were obtained from each analyte in pg/mL from treatment with the peptides in the presence of IL-1β (1 ng/mL). The data are presented as the mean±MSE (*p<0.05 when compared to the control with IL-1β, test t, n=3).

[4] = test system: THP-1 cells differentiated into macrophages; assay: LPS-induced cytokine production in THP-1-derived macrophages (Multiplex); format: cell-based, human
Experimental: THP-1 cells differentiated into macrophages were induced with LPS (10 ng/mL) and, one hour later, treated with synthetic peptides at a concentration of 200 nM. Dexamethasone (10 μM), an inflammatory inhibitor, was used as a control. After 24 hours, the culture medium was collected to measure the IL-1β (A), IL-6 (B), TNF-α (C), and IL-10 cytokines using a Multiplex kit. * p<0.05 vs. LPS; ** p<0.01 vs. LPS; *** p<0.005 vs. LPS;
THP-1 cells differentiated into macrophages were induced with LPS (10 ng/mL) and, one hour later, treated with L4 or D3 peptide (0.05 μM, 0.2 μM, 1 μM, and 2 μM). After 24 hours, the culture medium was collected and TNF-alpha, IL-6, IL-23, and IL-8 were measured by Multiplex. (A) L4 peptide. (B) D3 peptide;
(§3) Macrophages were obtained from the differentiation of monocytes THP-1. Briefly, 1×10^7 cells were treated in the RPMI medium with 25 nM PMA for 48 hours followed by 24 hours of rest in medium without PMA. Subsequently, the cells were released and plated for the respective treatments.
The kit is based on Luminex® xMAP® technology that allows the simultaneous analysis of various cytokines. The technique is based on marked magnetic fluorescent spheres, known as MagPlex®-C microspheres. These microspheres are covered with capture antibodies specific for IL-6 […], and specifically capture the analyte in the supernatant. Each microsphere was individually identified and the results were analyzed using Luminex® Xponent® 4.2 acquisition software.
THP-1 cells differentiated into macrophages were induced with LPS (10 ng/mL) and, one hour later, treated with synthetic peptides, […] (inflammation inhibitor, 10 μM). After 24 hours, the culture medium was collected and IL-1β (A), IL-6 (B), TNF-α (C), and IL-10 were measured by Multiplex. * p<0.05 vs. LPS; ** p<0.01 vs. LPS; *** p<0.005 vs. LPS.
THP-1 cells differentiated into macrophages were induced with LPS (10 ng/mL) and, one hour after, treated with L4 (0.05 μM, 0.2 μM, 1 μM, and 2 μM). After 24 hours, the culture medium was collected and TNF-α, IL-6, IL-23, and IL-8 were measured by Multiplex. (A) L4 peptide. (B) D3 peptide.

[5] = test system: macrophages derived from THP-1; assay: Cell viability (MTT) of macrophages derived from THP-1; format: cell-based, human
Experimental: as §3
The evaluation of metabolically active cells was performed using the colorimetric assay of [3-(4,5-dimethylthiazol-2-yl)-2,5-diphenyl tetrazolium] bromide (MTT, Sigma-Aldrich, St. Louis, USA), as previously reported (Twentyman et al., 1987). After each incubation period, the supernatant was removed and a MTT solution (0.5 mg/mL in phosphate-buffered saline—PBS) was added, and the cells incubated at 37° C. and 5% CO2 for 3 hours (Yang et al., 2012). After this period, the solution was removed and crystals of dark blue formazan were solubilized with 1 mL of dimethyl sulfoxide (DMSO, Merck, Darmstad) for 5 minutes. Quantification of formazan was done using an automatic ELISA microplate reader (SLT, Austria) at 570 nm.

[6] = peptide 200 nM added 3 hours after IL-1β (10 ng/mL)
[7] = LPS 10 ng/mL, peptide 200 nM one hour later, 24 hours, vs group treated only with LPS
[8] = dose-response 0.05, 0.2, 1 and 2 μM, LPS 10 ng/mL, 24 hours

Row | Sequence | production of Substance P [1] | production of β-endorphin [1] | production of Substance P [2, 6] | production of β-endorphin [2, 6] | production of substance P induced by IL-1β ([2]; peptide 200 nM added 3 hours before IL-1β (10 ng/mL)) | anti-inflammatory activity (release of G-CSF, GM-CSF, IL-6, IL-8, MCP-1, TNF-α) [3] | levels of IL-10 (anti-inflammatory cytokine) ([4]; LPS 10 ng/mL, peptide 200 nM one hour later, 24 hours) | levels of IL-1β [4, 7] | levels of IL-6 [4, 7] | levels of TNF-a [4, 7] | best dose regarding IL-6 release [4, 8] [µM] | best dose regarding IL-8 release [4, 8] [µM] | most effective dose concerning IL-23 release [4, 8] [µM] | most effective dose concerning TNF-α release [4, 8] [µM] | production of inflammatory cytokines in response to LPS (dose-dependent) ([4]; dose-response 0.05-2 μM, TNF-α, IL-6, IL-23, IL-8) | viability of macrophages derived from THP-1 [5]
1 | DYWHDGHDLN (Designated peptide based on the motif of a group of proteins called hemoline from lepidoptera acting as an anti-inflammatory molecule.) [D3] | significantly inhibited | increased | inhibit | induced | significantly inhibited | anti-inflammatory activity | reduced | significantly reducing | significantly reducing | significantly reducing | 1 | 1 | 1 | 1 | reduced | 
2 | YAIGYSCKDYK [P4, YAIGYSCKDYK] |  |  |  |  |  |  |  |  |  |  |  |  |  |  |  | no effect
